The source of these data is ChEMBL document CHEMBL1137226, “Structure modifications of 6-aminoquinolones with potent anti-HIV activity” (J Med Chem, 2004).

For assay [1], the system named is CCRF-CEM. Put plainly: Concentration of compound that reduces the viability of mock-infected CEM cells by 50%. The format is functional. To be noted: Homo sapiens.
Assay [2] deals with MT4. Briefly: Concentration of compound that reduces the viability of mock-infected MT-4 cells by 50%. It counts as functional. The note with it: Homo sapiens.
Assay [3] deals with MT4. Put plainly: Maximum protection (%) of MT-4 cells from HIV-2 (ROD) induced cytopathogenicity; value ranges from 51-55%. It counts as functional, Homo sapiens.
The subject of assay [4] is MT4. Put plainly: Maximum protection (%) of MT-4 cells from HIV-1 (IIIB) induced cytopathogenicity; value ranges from 60-91%. The format is functional, Homo sapiens.
In assay [5] the test system is MT4. Put plainly: Concentration required for protection of MT-4 cells from HIV-1 (IIIB) induced cytopathogenicity in MTT assay. The format is functional, cell-based. The note with it: Homo sapiens.
Assay [6] in a line: Concentration of compound required for reduction of p24 production in HIV-1 (IIIB) infected peripheral blood mononuclear cells. The format is functional. The note with it: Homo sapiens.
Assay [7] has as its system CCRF-CEM. Put plainly: Concentration of compound required for protection of CEM cells from HIV-2 (ROD) induced cytopathogenicity. The format is functional, cell-based. To be noted: Homo sapiens.
The test system of assay [8] is CCRF-CEM. Briefly: Concentration of compound required for protection of CEM cells from HIV-1 (IIIB) induced cytopathogenicity. It counts as functional, cell-based. To be noted: Homo sapiens.
The test system of assay [9] is MT4. Put plainly: Concentration required for protection of MT-4 cells from HIV-2 (ROD) induced cytopathogenicity in MTT assay. The format is functional, cell-based. The note with it: Homo sapiens.
Assay [10] is described as follows: Concentration of compound that reduces the viability of mock-infected peripheral blood mononuclear cells by 50%. It counts as functional. To be noted: Homo sapiens.
Assay [11] concerns CCRF-CEM. Briefly: Selectivity index towards HIV-2 (ROD) in CEM cells. It counts as functional, Homo sapiens.
Assay [12] has as its system CCRF-CEM. Briefly: Selectivity index towards HIV-1 (IIIB) in CEM cells. It counts as functional, Homo sapiens.
The subject of assay [13] is MT4. Put plainly: Selectivity index towards HIV-2 (ROD) in MT-4 cells. It counts as functional, Homo sapiens.
Assay [14] relates to MT4. Briefly: Selectivity index towards HIV-1 (IIIB) in MT-4 cells. It counts as functional, Homo sapiens.
Assay [15] in a line: Selectivity index towards HIV-1 (IIIB) in peripheral blood mononuclear cells. The format is functional, Homo sapiens.
Assay [16] has as its system MT4. Put plainly: Maximum protection (%) of MT-4 cells from HIV-1 (IIIB) induced cytopathogenicity; value ranges from 7-30%. The format is functional, Homo sapiens.
The subject of assay [17] is MT4. Put plainly: Maximum protection (%) of MT-4 cells from HIV-2 (ROD) induced cytopathogenicity; value ranges from 17-31%. It counts as functional, Homo sapiens.
Assay [18] concerns MT4. Briefly: Maximum protection (%) of MT-4 cells from HIV-2 (ROD) induced cytopathogenicity; value ranges from 15-21%. The format is functional, Homo sapiens.
The subject of assay [19] is MT4. Put plainly: Maximum protection (%) of MT-4 cells from HIV-1 (IIIB) induced cytopathogenicity; value ranges from 65-86%. The format is functional, Homo sapiens.
The test system of assay [20] is MT4. Briefly: Maximum protection (%) of MT-4 cells from HIV-2 (ROD) induced cytopathogenicity. It counts as functional, Homo sapiens.
Assay [21] deals with MT4. Put plainly: Maximum protection (%) of MT-4 cells from HIV-1 (IIIB) induced cytopathogenicity; value ranges from 5-9%. The format is functional, Homo sapiens.
Assay [22] has as its system MT4. Put plainly: Maximum protection (%) of MT-4 cells from HIV-1 (IIIB) induced cytopathogenicity; value ranges from 16-21%. The format is functional, Homo sapiens.
For assay [23], the system named is MT4. Put plainly: Maximum protection (%) of MT-4 cells from HIV-2 (ROD) induced cytopathogenicity; value ranges from 17-27%. The format is functional, Homo sapiens.
Assay [24] concerns MT4. Put plainly: Maximum protection (%) of MT-4 cells from HIV-1 (IIIB) induced cytopathogenicity; value ranges from 9-24%. The format is functional, Homo sapiens.
For assay [25], the system named is MT4. Put plainly: Maximum protection (%) of MT-4 cells from HIV-2 (ROD) induced cytopathogenicity; value ranges from 26-27%. The format is functional, Homo sapiens.
For assay [26], the system named is MT4. Put plainly: Maximum protection (%) of MT-4 cells from HIV-1 (IIIB) induced cytopathogenicity; value ranges from 11-24%. It counts as functional, Homo sapiens.
Assay [27] concerns MT4. Put plainly: Maximum protection (%) of MT-4 cells from HIV-2 (ROD) induced cytopathogenicity; value ranges from 58-83%. The format is functional, Homo sapiens.
In assay [28] the test system is MT4. Briefly: Maximum protection (%) of MT-4 cells from HIV-1 (IIIB) induced cytopathogenicity; value ranges from 55-118%. The format is functional, Homo sapiens.

Values after ≈ are worked out from the molar mass of the structure shown.

As to `Cn1cc(C(=O)O)c(=O)c2cc(N)c(N3CCN(c4cnccn4)CC3)cc21`, the CC50 in assay [1] was above 100 µg/mL; in assay [2] it was 3.98 µg/mL (≈ 10.5 µM); in assay [10], 3.65 µg/mL (≈ 9.59 µM). Also, the figures for the Protection in [3] and in assay [4] were below 55% and below 91%, respectively. Besides, the EC50 in assay [5] worked out at 0.7 µg/mL (≈ 1.84 µM); in [6] it was 0.04 µg/mL (≈ 0.105 µM); in assay [7], 0.2 µg/mL (≈ 0.526 µM); in [8], 0.08 µg/mL (≈ 0.21 µM); in assay [9] it was 1.54 µg/mL (≈ 4.05 µM). The Selectivity index is given as above 500 in assay [11]; above 1250 in [12]; 2.6 in [13]; 5.7 in [14]; 81 in [15].

As to `Cn1cc(C(=O)O)c(=O)c2cc(N)c(N3CCN(c4ccccc4F)CC3)cc21`, the Protection in assay [16] was below 30%; in [17] it was below 31%. The same molecule showed a CC50 in assay [2] above 125 µg/mL. Besides, the EC50 in [5] and in assay [9] was above 125 µg/mL throughout.

For `Cn1cc(C(=O)O)c(=O)c2cc(N)c(N3CCN(c4nc5ccccc5o4)CC3)cc21`, the figures for the Protection in assay [18] and in assay [19] were below 21% and below 86%, respectively. In addition, the figures for the CC50 in assay [1], in assay [2] and in assay [10] were 2.2 µg/mL (≈ 5.25 µM), 0.09 µg/mL (≈ 0.215 µM) and 1.12 µg/mL (≈ 2.67 µM), respectively. Moreover, the EC50 is 0.01 µg/mL (≈ 0.0238 µM) in [5]; 0.04 µg/mL (≈ 0.0954 µM) in [6]; 0.02 µg/mL (≈ 0.0477 µM) in assay [7]; 0.01 µg/mL (≈ 0.0238 µM) in assay [8]; 0.0087 µg/mL (≈ 0.0207 µM) in [9]. Also, the Selectivity index is 110 in assay [11]; 220 in assay [12]; 11.3 in assay [13]; 6.5 in assay [14]; 26 in [15].

Turning to `CC(=O)c1ccc(N2CCN(c3cc4c(cc3N)c(=O)c(C(=O)O)cn4C)CC2)cc1`, half-maximal cytotoxicity in assay [2] (CC50) was put at 0.15 µg/mL (≈ 0.357 µM). Further, the results for the Protection in assay [20] and in assay [21] were 13% and below 9%, respectively. For the same molecule, the EC50 in [5] and in [9] was above 0.15 µg/mL each time. For the same molecule, the Selectivity index in assay [13] and in assay [14] was below 1 throughout.

`COc1ccccc1N1CCN(c2cc3c(cc2N)c(=O)c(C(=O)O)cn3C)CC1`: half-maximal cytotoxicity in assay [2] (CC50) was put at 7.45 µg/mL (≈ 18.2 µM). The Protection in assay [22] was below 21%; in [23] it was below 27%. Besides, the EC50 in assay [5] and in [9] was above 7.45 µg/mL throughout. The Selectivity index in [13] and in assay [14] was below 1 in each case.

`COc1ccccc1N1CCN(c2cc3c(cc2N)c(=O)c(C(=O)O)cn3C2CC2)CC1`: the results for the Protection in assay [24] and in assay [20] were below 24% and 10%, respectively. In [2], the midpoint of cytotoxicity, the CC50, lay at 10.3 µg/mL (≈ 23.8 µM). Also, the EC50 in [5] and in assay [9] was above 10.3 µg/mL throughout. The Selectivity index in [13] and in assay [14] was below 1 throughout.

Regarding `CCn1cc(C(=O)O)c(=O)c2cc(N)c(N3CCN(c4ccccn4)CC3)cc21`, the values for the Protection in assay [25] and in assay [26] were below 27% and below 24%, respectively. The CC50 in [2] came out at 2.2 µg/mL (≈ 5.59 µM). In addition, the EC50 in assay [5] and in [9] was above 2.2 µg/mL throughout. The Selectivity index in [13] and in assay [14] was below 1 each time.

For the molecule `Cn1cc(C(=O)O)c(=O)c2cc(N)c(N3CCN(c4nccs4)CC3)cc21`, the CC50 was at least 100 µg/mL in assay [1], 1.17 µg/mL (≈ 3.04 µM) in assay [2] and 1.3 µg/mL (≈ 3.37 µM) in [10]. In addition, the Protection in [27] was below 83%; in assay [28], below 118%. Besides, the EC50 in assay [5] turned out to be 0.13 µg/mL (≈ 0.337 µM); in [6], 0.03 µg/mL (≈ 0.0778 µM); in assay [7], 0.08 µg/mL (≈ 0.208 µM); in assay [8], 0.06 µg/mL (≈ 0.156 µM); in assay [9], 0.08 µg/mL (≈ 0.208 µM). The Selectivity index result is recorded as “>=1250” in assay [11]; “>=1667” in [12]; 14.6 in assay [13]; 9 in assay [14]; 41 in assay [15].
